According to PubChem BioAssay (NCI):
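Test compounds were applied to cells in 96-well plates for 48 hours at 5 doses. GI50 marks 50% less growth. TGI is the concentration that stops growth completely.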

Columns and labels:
Assay in all cases: DTP human tumour cell line panel, 48 h; in the data active = GI50 below about 0.43 µM; inactive = the rest
RPMI-8226 leukemia = test system: RPMI-8226 leukemia
HL-60(TB) leukemia = test system: HL-60(TB) leukemia
NCI-H226 lung = test system: NCI-H226 lung
MALME-3M melanoma = test system: MALME-3M melanoma
HCC-2998 colon = test system: HCC-2998 colon
TK-10 renal = test system: TK-10 renal
OVCAR-3 ovarian = test system: OVCAR-3 ovarian
UO-31 renal = test system: UO-31 renal
BT-549 breast = test system: BT-549 breast
MDA-N = test system: MDA-N
LOX IMVI melanoma = test system: LOX IMVI melanoma
UACC-62 melanoma = test system: UACC-62 melanoma
SK-MEL-5 melanoma = test system: SK-MEL-5 melanoma
UACC-257 melanoma = test system: UACC-257 melanoma
IGROV1 ovarian = test system: IGROV1 ovarian
OVCAR-4 ovarian = test system: OVCAR-4 ovarian
SK-MEL-28 melanoma = test system: SK-MEL-28 melanoma
OVCAR-5 ovarian = test system: OVCAR-5 ovarian
EKVX NSCLC = test system: EKVX NSCLC
PC-3 prostate = test system: PC-3 prostate
HCT-116 colon = test system: HCT-116 colon
NCI/ADR-RES ovarian = test system: NCI/ADR-RES ovarian
DU-145 prostate = test system: DU-145 prostate
U251 CNS = test system: U251 CNS
MDA-MB-435 = test system: MDA-MB-435
SNB-19 CNS = test system: SNB-19 CNS
MDA-MB-231 breast = test system: MDA-MB-231 breast
COLO 205 colon = test system: COLO 205 colon
SF-295 CNS = test system: SF-295 CNS
786-0 renal = test system: 786-0 renal
KM12 colon = test system: KM12 colon
HS 578T breast = test system: HS 578T breast
A549 NSCLC = test system: A549 NSCLC
SNB-75 CNS = test system: SNB-75 CNS
SF-539 CNS = test system: SF-539 CNS
K-562 leukemia = test system: K-562 leukemia
SK-OV-3 ovarian = test system: SK-OV-3 ovarian
NCI-H23 lung = test system: NCI-H23 lung
RXF 393 renal = test system: RXF 393 renal
CAKI-1 renal = test system: CAKI-1 renal
OVCAR-8 ovarian = test system: OVCAR-8 ovarian
M14 melanoma = test system: M14 melanoma
SF-268 CNS = test system: SF-268 CNS
NCI-H460 lung = test system: NCI-H460 lung
MOLT-4 leukemia = test system: MOLT-4 leukemia
SW-620 colon = test system: SW-620 colon
HCT-15 colon = test system: HCT-15 colon
HT29 colon = test system: HT29 colon
MCF7 breast = test system: MCF7 breast
SN12C renal = test system: SN12C renal
HOP-62 NSCLC = test system: HOP-62 NSCLC
A498 renal = test system: A498 renal
CCRF-CEM leukemia = test system: CCRF-CEM leukemia
SR leukemia = test system: SR leukemia
ACHN renal = test system: ACHN renal
SK-MEL-2 melanoma = test system: SK-MEL-2 melanoma
HOP-92 NSCLC = test system: HOP-92 NSCLC
T-47D breast = test system: T-47D breast
NCI-H522 lung = test system: NCI-H522 lung

CC(=O)NC(C)(C)C1CC=C(C)CC1 (centres undefined)
> 100 µM: TGI (RPMI-8226 leukemia) | TGI (HL-60(TB) leukemia) | TGI (NCI-H226 lung) | TGI (MALME-3M melanoma) | TGI (HCC-2998 colon) | TGI (TK-10 renal) | TGI (OVCAR-3 ovarian) | TGI (UO-31 renal) | TGI (BT-549 breast) | TGI (MDA-N) | TGI (LOX IMVI melanoma) | TGI (UACC-62 melanoma) | TGI (SK-MEL-5 melanoma) | TGI (UACC-257 melanoma) | TGI (IGROV1 ovarian) | TGI (OVCAR-4 ovarian) | TGI (SK-MEL-28 melanoma) | TGI (OVCAR-5 ovarian) | TGI (EKVX NSCLC) | TGI (PC-3 prostate) | TGI (HCT-116 colon) | TGI (NCI/ADR-RES ovarian) | TGI (DU-145 prostate) | TGI (U251 CNS) | TGI (MDA-MB-435) | TGI (SNB-19 CNS) | TGI (MDA-MB-231 breast) | TGI (COLO 205 colon) | TGI (SF-295 CNS) | TGI (786-0 renal) | TGI (KM12 colon) | TGI (HS 578T breast) | TGI (A549 NSCLC) | TGI (SNB-75 CNS) | TGI (SF-539 CNS) | TGI (K-562 leukemia) | TGI (SK-OV-3 ovarian) | TGI (NCI-H23 lung) | TGI (RXF 393 renal) | TGI (CAKI-1 renal) | TGI (OVCAR-8 ovarian) | TGI (M14 melanoma) | TGI (SF-268 CNS) | TGI (NCI-H460 lung) | TGI (MOLT-4 leukemia) | TGI (SW-620 colon) | TGI (HCT-15 colon) | TGI (HT29 colon) | TGI (MCF7 breast) | TGI (SN12C renal) | TGI (HOP-62 NSCLC) | TGI (A498 renal) | TGI (CCRF-CEM leukemia) | TGI (SR leukemia) | TGI (ACHN renal)

O=C(CN1CCN(CCCOc2c(-c3ccccc3)oc3ccccc3c2=O)CC1)Nc1ccc(Cl)cc1C(=O)c1ccccc1Cl
30.2 µM: TGI (COLO 205 colon)
26.5 µM: TGI (MCF7 breast)
40.2 µM: TGI (NCI-H226 lung)
19.1 µM: TGI (U251 CNS)
53.8 µM: TGI (HCT-15 colon)
54.1 µM: TGI (TK-10 renal)
60.8 µM: TGI (HS 578T breast)
4.51 µM: TGI (M14 melanoma)
26.3 µM: TGI (UACC-62 melanoma)
31 µM: TGI (SK-MEL-2 melanoma)
54.8 µM: TGI (OVCAR-4 ovarian)
22.2 µM: TGI (SF-539 CNS) | TGI (OVCAR-8 ovarian)
21.4 µM: TGI (PC-3 prostate)
90.8 µM: TGI (OVCAR-5 ovarian)
28.1 µM: TGI (HOP-62 NSCLC)
57.2 µM: TGI (NCI-H522 lung)
29.4 µM: TGI (UO-31 renal)
29.9 µM: TGI (KM12 colon)
8.17 µM: TGI (SR leukemia)
active: GI50 (SW-620 colon) 0.336 µM
15.2 µM: TGI (SK-MEL-28 melanoma)
18 µM: TGI (SN12C renal)
8.91 µM: TGI (MALME-3M melanoma)
19.5 µM: TGI (OVCAR-3 ovarian)
36.9 µM: TGI (CAKI-1 renal)
54.2 µM: TGI (SK-OV-3 ovarian)
47.3 µM: TGI (IGROV1 ovarian)
12 µM: TGI (CCRF-CEM leukemia)
33.9 µM: TGI (T-47D breast)
20.5 µM: TGI (UACC-257 melanoma)
16.6 µM: TGI (HCT-116 colon)
47.1 µM: TGI (SNB-75 CNS)
18.2 µM: TGI (SF-295 CNS)
7.14 µM: TGI (RPMI-8226 leukemia)
4.23 µM: TGI (HCC-2998 colon)
19.3 µM: TGI (MDA-MB-231 breast)
81.8 µM: TGI (A498 renal)
17 µM: TGI (MDA-MB-435)
41.9 µM: TGI (NCI-H23 lung)
25.2 µM: TGI (SK-MEL-5 melanoma)
66.7 µM: TGI (MOLT-4 leukemia)
14.4 µM: TGI (LOX IMVI melanoma)
40.5 µM: TGI (BT-549 breast)
8.79 µM: TGI (RXF 393 renal)
19.4 µM: TGI (786-0 renal)
inactive: GI50 (RPMI-8226 leukemia) 2.59 µM | GI50 (HL-60(TB) leukemia) > 100 µM | GI50 (NCI-H226 lung) 13.9 µM | GI50 (MALME-3M melanoma) 4 µM | GI50 (HCC-2998 colon) 2.26 µM | GI50 (TK-10 renal) 16.6 µM | GI50 (OVCAR-3 ovarian) 5.79 µM | GI50 (UO-31 renal) 9.28 µM | GI50 (SK-MEL-2 melanoma) 12.5 µM | GI50 (BT-549 breast) 14.1 µM | GI50 (LOX IMVI melanoma) 3.87 µM | GI50 (UACC-62 melanoma) 12.3 µM | GI50 (SK-MEL-5 melanoma) 5.93 µM | GI50 (UACC-257 melanoma) 4.59 µM | GI50 (IGROV1 ovarian) 6.16 µM | GI50 (OVCAR-4 ovarian) 7.48 µM | GI50 (SK-MEL-28 melanoma) 3.66 µM | GI50 (OVCAR-5 ovarian) 27.2 µM | GI50 (EKVX NSCLC) 22.7 µM | GI50 (PC-3 prostate) 3.18 µM | GI50 (HCT-116 colon) 4.44 µM | GI50 (HOP-92 NSCLC) 1.05 µM | GI50 (NCI/ADR-RES ovarian) 5.74 µM | GI50 (DU-145 prostate) 19.8 µM | GI50 (U251 CNS) 5.86 µM | GI50 (MDA-MB-435) 4.13 µM | GI50 (SNB-19 CNS) 8.09 µM | GI50 (MDA-MB-231 breast) 4.26 µM | GI50 (COLO 205 colon) 13.4 µM | GI50 (SF-295 CNS) 4.79 µM | GI50 (786-0 renal) 5.58 µM | GI50 (KM12 colon) 5.73 µM | GI50 (HS 578T breast) 8.45 µM | GI50 (A549 NSCLC) 6.37 µM | GI50 (SNB-75 CNS) 4.39 µM | GI50 (SF-539 CNS) 6.68 µM | GI50 (K-562 leukemia) 4.18 µM | GI50 (SK-OV-3 ovarian) 15.1 µM | GI50 (NCI-H23 lung) 12.4 µM | GI50 (RXF 393 renal) 2.57 µM | GI50 (CAKI-1 renal) 12.9 µM | GI50 (OVCAR-8 ovarian) 4.33 µM | GI50 (M14 melanoma) 2.01 µM | GI50 (T-47D breast) 6.7 µM | GI50 (NCI-H522 lung) 16.6 µM | GI50 (SF-268 CNS) 23.2 µM | GI50 (NCI-H460 lung) 3.64 µM | GI50 (MOLT-4 leukemia) 3.98 µM | GI50 (HCT-15 colon) 5.48 µM | GI50 (HT29 colon) 3.09 µM | GI50 (MCF7 breast) 3.5 µM | GI50 (SN12C renal) 4.98 µM | GI50 (HOP-62 NSCLC) 10.4 µM | GI50 (A498 renal) 21.5 µM | GI50 (CCRF-CEM leukemia) 0.635 µM | GI50 (SR leukemia) 3.14 µM | GI50 (ACHN renal) 14.8 µM
26.4 µM: TGI (NCI/ADR-RES ovarian)
6.6 µM: TGI (HOP-92 NSCLC)
> 100 µM: TGI (HL-60(TB) leukemia) | TGI (EKVX NSCLC) | TGI (DU-145 prostate) | TGI (SNB-19 CNS) | TGI (A549 NSCLC) | TGI (K-562 leukemia) | TGI (SF-268 CNS) | TGI (NCI-H460 lung) | TGI (SW-620 colon) | TGI (HT29 colon) | TGI (ACHN renal)

FC(F)(Sc1ccccn1)c1nc2ccccc2o1
> 100 µM: TGI (RPMI-8226 leukemia) | TGI (NCI-H226 lung) | TGI (MALME-3M melanoma) | TGI (HCC-2998 colon) | TGI (TK-10 renal) | TGI (OVCAR-3 ovarian) | TGI (UO-31 renal) | TGI (SK-MEL-2 melanoma) | TGI (BT-549 breast) | TGI (MDA-N) | TGI (UACC-62 melanoma) | TGI (SK-MEL-5 melanoma) | TGI (UACC-257 melanoma) | TGI (IGROV1 ovarian) | TGI (OVCAR-4 ovarian) | TGI (SK-MEL-28 melanoma) | TGI (OVCAR-5 ovarian) | TGI (PC-3 prostate) | TGI (HCT-116 colon) | TGI (HOP-92 NSCLC) | TGI (NCI/ADR-RES ovarian) | TGI (DU-145 prostate) | TGI (U251 CNS) | TGI (MDA-MB-435) | TGI (MDA-MB-231 breast) | TGI (COLO 205 colon) | TGI (SF-295 CNS) | TGI (786-0 renal) | TGI (KM12 colon) | TGI (A549 NSCLC) | TGI (SF-539 CNS) | TGI (K-562 leukemia) | TGI (SK-OV-3 ovarian) | TGI (NCI-H23 lung) | TGI (RXF 393 renal) | TGI (CAKI-1 renal) | TGI (OVCAR-8 ovarian) | TGI (M14 melanoma) | TGI (T-47D breast) | TGI (NCI-H522 lung) | TGI (SF-268 CNS) | TGI (NCI-H460 lung) | TGI (MOLT-4 leukemia) | TGI (SW-620 colon) | TGI (HCT-15 colon) | TGI (HT29 colon) | TGI (MCF7 breast) | TGI (SN12C renal) | TGI (HOP-62 NSCLC) | TGI (A498 renal) | TGI (CCRF-CEM leukemia) | TGI (SR leukemia) | TGI (ACHN renal)
